Values quoted from earlier work, collected in US20250345461A1, “METHOD FOR REPAIRING HAIR CYCLE-RELATED GENES AND METHOD FOR TREATING HAIR CYCLE-RELATED DISEASES USING MIR-520D-5P” (LIVIUS PTE. LTD., priority 2021, published 2025).
Structures can show the parent of a compound that is named as a salt. Where two headings read alike, the source gives them in different places.

CCCCC(CC)CNC(=N)NC(=N)NCCCCCCNC(=N)NC(=N)NCC(CC)CCCC (stereo not drawn) [Alexidine]
Inhibition of cancer growth (concentration in known indications) (Inhibition of cancer growth): Inhibition of cancer growth: 1 mM

CC(C)NCC(O)COc1ccc(CCOCC2CC2)cc1 (stereo not drawn) [Betaxolol]
Maximum effective blood concentration at the time of administration or concentration in an external preparation in known indications (Essential hypertension, parenchymal renal hypertension, angina, glaucoma, ocular hypertension): Administration: 41.8 ng/mL

CC(C)NCC(O)COc1ccc(COCCOC(C)C)cc1 (stereo not drawn) [Bisoprolol, Bisoprolol fumarate]
Maximum effective blood concentration at the time of administration or concentration in an external preparation in known indications (Chronic heart failure due to essential hypertension, angina, ischemic heart disease, and dilated cardiomyopathy): Administration: 100 ng/mL

CCOc1nc2cccc(C(=O)O)c2n1Cc1ccc(-c2ccccc2-c2nnn[nH]2)cc1 [Candesartan]
Maximum effective blood concentration at the time of administration or concentration in an external preparation in known indications (Hypertension): Administration: 75 ng/mL

CCCNC(=O)NS(=O)(=O)c1ccc(Cl)cc1 [Chlorpropamide]
Maximum effective blood concentration at the time of administration or concentration in an external preparation in known indications (Type 2 diabetes): Administration: 30 μg/mL

C=C(CC)C(=O)c1ccc(OCC(=O)O)c(Cl)c1Cl [Ethacrynic acid]
Maximum effective blood concentration at the time of administration or concentration in an external preparation in known indications (Edematous diseases): Administration: 100 μM

C=CCOc1ccccc1OCC(O)CNC(C)C (stereo not drawn) [Oxprenolol]
Maximum effective blood concentration at the time of administration or concentration in an external preparation in known indications (Tachyarrhythmia, angina): Administration: 30.18 μg/μL

CN[C@H](CC(C)C)C(=O)N[C@H]1C(=O)N[C@@H](CC(N)=O)C(=O)N[C@H]2C(=O)N[C@H]3C(=O)N[C@H](C(=O)N[C@H](C(=O)O)c4cc(O)cc(O)c4-c4cc3ccc4O)[C@H](O)c3ccc(c(Cl)c3)Oc3cc2cc(c3O[C@@H]2O[C@H](CO)[C@@H](O)[C@H](O)[C@H]2O[C@H]2C[C@](C)(N)[C@H](O)[C@H](C)O2)Oc2ccc(cc2Cl)[C@H]1O [Vancomycin]
Maximum effective blood concentration at the time of administration or concentration in an external preparation in known indications (MRSA infection): Administration: 30 μg/mL

Colistin
Maximum effective blood concentration at the time of administration or concentration in an external preparation in known indications (Escherichia coli, Shigella, multidrug-resistant Pseudomonas aeruginosa, infectious enteritis): Administration: 4.4 μg/mL
